Key:
Homo sapiens [1] = assay: AUC (0 to 12 hrs) in human assessed as amprenavir levels at 700 mg, po bid for 10 days pretreated with paroxetin at 20 mg, po qd for 10 days followed by 16 days washout period then coadministered with paroxetin at 20 mg, po qd and ritonavir at 100 mg, po bid for 10 days; type: ADME, organism-based, Plasma; set-up: time < 12 hr, dose 700 mg, route oral; conditions: in vivo
Homo sapiens [2] = assay: Half life in human assessed as amprenavir levels at 700 mg, po bid for 10 days pretreated with paroxetin at 20 mg, po qd for 10 days followed by 16 days washout period then coadministered with paroxetin at 20 mg, po qd and ritonavir at 100 mg, po bid for 10 days; type: ADME, organism-based; conditions: in vivo
Homo sapiens [3] = assay: Decrease in serotonin concentration in human platelets at 20 mg, po qd for 10 days relative to control; type: functional; set-up: scale not given: the % may be the effect or the level left
Homo sapiens [4] = assay: Toxicity in human assessed as serious adverse events at 20 mg, po qd for 10 days; type: organism-based; conditions: in vivo, 240 h
[5] = AUC (0 to 24 hrs) in human at 20 mg, po qd for 10 days followed by 16 days washout period and treated with 20 mg, po qd for 10 days coadministered with fosamprenavir at 700 mg, po bid and ritonavir at 100 mg, po bid; type: ADME, organism-based; set-up: dose 20 mg, time < 24 hr, route oral; conditions: plasma
[6] = Cmax in human at 20 mg, po qd for 10 days; type: ADME, organism-based; set-up: dose 20 mg, route oral; conditions: in vivo
[7] = Apparent oral clearance in human at 20 mg, po qd for 10 days; type: ADME, organism-based; conditions: in vivo
[8] = Cmax in human at 20 mg, po qd for 10 days followed by 16 days washout period and treated with 20 mg, po qd for 10 days coadministered with fosamprenavir at 700 mg, po bid and ritonavir at 100 mg, po bid; type: ADME, organism-based; set-up: dose 20 mg, route oral; conditions: in vivo
Homo sapiens [9] = assay: Toxicity in human assessed as serious adverse events at 20 mg, po qd for 10 days followed by 16 days washout period and treated with 20 mg, po qd for 10 days coadministered with fosamprenavir at 700 mg, po bid and ritonavir at 100 mg, po bid; type: organism-based; conditions: in vivo
[10] = Half life in human at 20 mg, po qd for 10 days; type: ADME, organism-based; conditions: in vivo
[11] = Apparent volume of distribution in human; type: ADME, organism-based; conditions: in vivo, read-out: Vz
Homo sapiens [12] = assay: Decrease in serotonin concentration in human platelets at 20 mg, po qd for 10 days followed by 16 days washout period and treated with 20 mg, po qd for 10 days coadministered with fosamprenavir at 700 mg, po bid and ritonavir at 100 mg, po bid relative to control; type: functional; set-up: scale not given: the % may be the effect or the level left
[13] = Half life in human at 20 mg, po qd for 10 days followed by 16 days washout period and treated with 20 mg, po qd for 10 days coadministered with fosamprenavir at 700 mg, po bid and ritonavir at 100 mg, po bid; type: ADME, organism-based; conditions: in vivo
[14] = AUC (0 to 24 hrs) in human at 20 mg, po qd for 10 days; type: ADME, organism-based; set-up: time < 24 hr, dose 20 mg, route oral; conditions: plasma
clinical = conditions: human, in vivo, po
Description: Half life in human at 100 mg, po bid for 10 days pretreated with paroxetin at 20 mg, po qd for 10 days followed by 16 days washout period then coadministered with paroxetin at 20 mg, po qd and fosamprenavir at 700 mg, po bid for 10 days

[15] = AUC (0 to 12 hrs) in human at 100 mg, po bid for 10 days pretreated with paroxetin at 20 mg, po qd for 10 days followed by 16 days washout period then coadministered with paroxetin at 20 mg, po qd and fosamprenavir at 700 mg, po bid for 10 days; type: ADME, organism-based; set-up: time < 12 hr, dose 100 mg, route oral; conditions: plasma

`CC(C)CN(C[C@@H](O)[C@H](Cc1ccccc1)NC(=O)O[C@H]1CCOC1)S(=O)(=O)c1ccc(N)cc1` [AMPRENAVIR] showed an AUC (Homo sapiens [1]) of 44100 ng·h/mL and a t1/2 (Homo sapiens [2]) of 11.5 h.
For `Fc1ccc([C@@H]2CCNC[C@H]2COc2ccc3c(c2)OCO3)cc1` [PAROXETINE], the Activity (Homo sapiens [3]) was 87%, the Activity (Homo sapiens [4]) was “Non-toxic” and the AUC at 24 h [5] was 270 ng·h/mL. For the same compound, the Cmax [6] was 34 ng/mL, the CL/F [7] was 552 mL/min and the Cmax [8] was 17 ng/mL. The Activity (Homo sapiens [9]) was “Non-toxic”, the half-life [10] was 21.1 h and the Vd [11] was 8.7 L/kg. It also gave an Activity (Homo sapiens [12]) of 81%, a half-life [13] of 15.9 h and an AUC at 24 h [14] of 590 ng·h/mL.
Compound `CC(C)c1nc(CN(C)C(=O)N[C@H](C(=O)N[C@@H](Cc2ccccc2)C[C@H](O)[C@H](Cc2ccccc2)NC(=O)OCc2cncs2)C(C)C)cs1` [RITONAVIR] has a half-life (clinical) of 4.1 h and an AUC at 12 h [15] of 5100 ng·h/mL.
